Data on four molecules can be found in patent US11940442B2, “Method and system for determining integrated metabolic baseline and potential of living cells” (AGILENT TECHNOLOGIES, INC., priority 2015, dated 2024).

The subject of experiment [1] is RAW 264.7 macrophage cells. Nature of the experiment: Metabolic potential (OCR/ECAR, XFp) after co-injection of FCCP and oligomycin, LPS treatment. Format: cell-based. Conditions: 1 μg/ml LPS, 1 hour; stress 0.5 μM FCCP + 1.0 μM oligomycin. As for the experimental part:
Cells treated with LPS received media containing 1 μg/ml LPS, control cells received assay media.
Metabolic potential was measured using an XFp Extracellular Flux Analyzer (Seahorse Bioscience) and XFp assay cartridges (Seahorse Bioscience). Briefly, microplates containing LPS-treated and control cells were placed in the XFp Extracellular Flux Analyzer, and initial OCR and ECAR measurements are taken.

For another experiment, the system named is C2C12 myotubes. Briefly: Metabolic potential (OCR/ECAR, XFp) after co-injection of FCCP and oligomycin, etomoxir treatment. It counts as cell-based. Conditions: 40 μM etomoxir, 1 hour; stress 0.5 μM FCCP + 1.0 μM oligomycin. As for the experimental part:
C2C12 myoblast cells were seeded into XFp microplates at a density of 1.2×10^4 cells/well. […] During differentiation, medium was replaced with fresh differentiation medium every other day. […] Metabolic potential was measured using an XFp Extracellular Flux Analyzer (Seahorse Bioscience) and XFp assay cartridges (Seahorse Bioscience). Briefly, microplates containing etomoxir-treated and control myotubes were placed in the XFp Extracellular Flux Analyzer, and initial OCR and ECAR measurements are taken.

The test system of experiment [2] is RAW 264.7 macrophage cells. Conditions: RAW 264.7 cells, in the presence of 1.0 μM oligomycin; FCCP 0.125-2 μM tested.
Source text: Cultured cells are first seeded into the wells of an appropriate microplate (also referred to herein as a multi-well plate) for the instrument being used (as described above). • 2. After adherence to the microplate, cells are either allowed to grow as desired, or may be assayed for metabolic potential immediately. • 3. At time of assay, cell culture media is exchanged for a volume of assay media appropriate for the microplate being used to create a cell sample including a plurality of cells disposed in a media. The microplate is allowed to incubate for 1 h at 37° C. in a non-CO2 incubator. • 4. […] To titrate optimal FCCP concentration in an XFe96 instrument, RAW 264.7 macrophages are exposed to varying concentrations of the drug, and the resulting OCR is measured. In this example, cells were first treated with 1.0 μM oligomycin (final concentration in 200 μl assay media), OCR was measured, and then one of the following concentrations of FCCP was added: 0.125, 0.25, 0.5, 1.0, or 2.0 μM (final concentration in 222 μl assay media). […] The metabolic potential of the cell sample may be determined by (i) providing the initial oxygen consumption rate, the initial extracellular acidification rate, the subsequent oxygen consumption rate, and the subsequent extracellular acidification rate to a software program, and (ii) using the software program to calculate the metabolic potential. […]
The subject of the next experiment is C2C12 myoblast cells. Nature of the experiment: Metabolic potential (OCR/ECAR, XFp) after co-injection of FCCP and oligomycin, UK5099 treatment. It counts as cell-based. Conditions: 2 μM UK5099, 1 hour; stress 0.5 μM FCCP + 1.0 μM oligomycin. As for the experimental part:
C2C12 myoblast cells were seeded into XFp microplates at a density of 1.2×10^4 cells/well.
Treated cells received media containing 2 μM UK5099 (a potent inhibitor of the mitochondrial pyruvate carrier), control cells received assay media.
Metabolic potential was measured using an XFp Extracellular Flux Analyzer (Seahorse Bioscience) and XFp assay cartridges (Seahorse Bioscience). Briefly, microplates containing UK5099-treated and control cells were placed in the XFp Extracellular Flux Analyzer, and initial OCR and ECAR measurements are taken.

As to lipopolysaccharide [LPS], in experiment [1], the “aerobic metabolic potential relative to control cells” value is on record as “increased” and the “glycolytic potential relative to control cells” value was “roughly unchanged”. `CCOC(=O)[C@@]1(CCCCCCOc2ccc(Cl)cc2)CO1` [etomoxir]: in the experiment on C2C12 myotubes, the “aerobic metabolic potential compared to control myotubes” value is listed as “increased” and the “glycolytic metabolic potential compared to control myotubes” value is given as “slightly decreased”.

For the molecule `N#CC(C#N)=NNc1ccc(OC(F)(F)F)cc1` [FCCP, carbonyl cyanide p-trifluoromethoxyphenylhydrazone], the “FCCP concentration at which maximal OCR is achieved” value in experiment [2] worked out at 0.5 µM. For the molecule `N#C/C(=C\c1cn(-c2ccccc2)c2ccccc12)C(=O)O` [UK5099], in the experiment on C2C12 myoblast cells, the “aerobic metabolic potential relative to control cells” value is recorded as “decreased” and the “glycolytic metabolic potential relative to control cells” value is recorded as “decreased”.
